Source: US20230085307A1, “PYRIDAZINONE COMPOUND AND HERBICIDE” (NISSAN CHEMICAL CORPORATION, priority 2019, published 2023)

These compounds were tested on barnyard grass (assay: Test Example 3: herbicidal effect by foliage application, Wagner pot (Table 18, symbol H)). Conditions: 320 g/ha.
Type: in vivo, barnyard grass (Echinochloa crus-galli)
Method in brief: (§1)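 Plants were sown in alluvial soil held under 0.1–0.5 cm standing water and grown 14 days in a greenhouse at 25–30 °C. An emulsifiable formulation, water-diluted to the set dose, was then sprayed onto the foliage, and effects were scored three weeks later using previously defined criteria.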

SMILES | herbicidal effect on barnyard grass (H)
COc1cc(F)ccc1-c1sc2c(Cl)cccc2c1-c1c(O)c(C)nn(C)c1=O [4-033] | 4 (Herbicidal rate of 70% or more and less than 90%)

The compounds below were run on Chinese sprangletop (assay: Test Example 3: herbicidal effect by foliage application, Wagner pot (Table 18, symbol D)). Conditions: 320 g/ha.
Type: in vivo, chinese sprangletop (Leptochloa chinensis)
Method in brief: as §1

SMILES | herbicidal effect on Chinese sprangletop (D)
COc1cc(F)ccc1-c1sc2c(Cl)cccc2c1-c1c(O)c(C)nn(C)c1=O [4-033] | 2 (Herbicidal rate of 20% or more and less than 40%)

What follows are compounds tested on rice flat sedge (assay: Test Example 3: herbicidal effect by foliage application, Wagner pot (Table 18, symbol E)). Conditions: 320 g/ha.
Type: in vivo, rice flat sedge (Cyperus iria)
Method in brief: as §1

SMILES | herbicidal effect on rice flat sedge (E)
COc1cc(F)ccc1-c1sc2c(Cl)cccc2c1-c1c(O)c(C)nn(C)c1=O [4-033] | 3 (Herbicidal rate of 40% or more and less than 70%)

The compounds below were run on southern crabgrass (assay: Test Example 4: herbicidal effect by soil treatment (Table 19, symbol F)). Conditions: amount of applied herbicide 320 g/ha.
Type: in vivo, southern crabgrass (Digitaria ciliaris)
Method in brief: (§2)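 Step 1: sow seeds in sterilized diluvial soil, cover ~1.5 cm. Step 2: spray diluted emulsion onto soil surface at predetermined rate. Step 3: greenhouse, 25–30° C, three weeks. Step 4: grade effect on each plant by earlier criteria.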

SMILES | Herbicidal effect by soil treatment, F: southern crabgrass
COc1cc(F)ccc1-c1sc2c(Cl)cccc2c1-c1c(O)c(C)nn(C)c1=O [4-033] | 0 (Herbicidal rate of 5% or less (almost no effect))

What follows are compounds tested on green foxtail (assay: Test Example 4: herbicidal effect by soil treatment (Table 19, symbol G)). Conditions: amount of applied herbicide 320 g/ha.
Type: in vivo, green foxtail (Setaria viridis)
Method in brief: as §2

SMILES | Herbicidal effect by soil treatment, G: green foxtail
COc1cc(F)ccc1-c1sc2c(Cl)cccc2c1-c1c(O)c(C)nn(C)c1=O [4-033] | 0 (Herbicidal rate of 5% or less (almost no effect))

The compounds below were run on barnyard grass (assay: Test Example 4: herbicidal effect by soil treatment (Table 19, symbol H)). Conditions: amount of applied herbicide 320 g/ha.
Type: in vivo, barnyard grass (Echinochloa crus-galli)
Method in brief: as §2

SMILES | Herbicidal effect by soil treatment, H: barnyard grass
COc1cc(F)ccc1-c1sc2c(Cl)cccc2c1-c1c(O)c(C)nn(C)c1=O [4-033] | 0 (Herbicidal rate of 5% or less (almost no effect))

These compounds were tested on wild oat (assay: Test Example 4: herbicidal effect by soil treatment (Table 19, symbol I)). Conditions: amount of applied herbicide 320 g/ha.
Type: in vivo, wild oat (Avena fatua)
Method in brief: as §2

SMILES | Herbicidal effect by soil treatment, I: wild oat
COc1cc(F)ccc1-c1sc2c(Cl)cccc2c1-c1c(O)c(C)nn(C)c1=O [4-033] | 0 (Herbicidal rate of 5% or less (almost no effect))

These compounds were tested on blackgrass (assay: Test Example 4: herbicidal effect by soil treatment (Table 19, symbol J)). Conditions: amount of applied herbicide 320 g/ha.
Type: in vivo, blackgrass (Alopecurus myosuroides)
Method in brief: as §2

SMILES | Herbicidal effect by soil treatment, J: blackgrass
COc1cc(F)ccc1-c1sc2c(Cl)cccc2c1-c1c(O)c(C)nn(C)c1=O [4-033] | 0 (Herbicidal rate of 5% or less (almost no effect))

The compounds below were run on Italian ryegrass (assay: Test Example 4: herbicidal effect by soil treatment (Table 19, symbol K)). Conditions: amount of applied herbicide 320 g/ha.
Type: in vivo, Italian ryegrass (Lolium multiflorum)
Method in brief: as §2

SMILES | Herbicidal effect by soil treatment, K: Italian ryegrass
COc1cc(F)ccc1-c1sc2c(Cl)cccc2c1-c1c(O)c(C)nn(C)c1=O [4-033] | 0 (Herbicidal rate of 5% or less (almost no effect))

What follows are compounds tested on windgrass (assay: Test Example 4: herbicidal effect by soil treatment (Table 19, symbol L)). Conditions: amount of applied herbicide 320 g/ha.
Type: in vivo, windgrass (Apera spica-venti)
Method in brief: as §2

SMILES | Herbicidal effect by soil treatment, L: windgrass
COc1cc(F)ccc1-c1sc2c(Cl)cccc2c1-c1c(O)c(C)nn(C)c1=O [4-033] | 0 (Herbicidal rate of 5% or less (almost no effect))

Each compound was assayed on velvetleaf (assay: Test Example 4: herbicidal effect by soil treatment (Table 19, symbol M)). Conditions: amount of applied herbicide 320 g/ha.
Type: in vivo, velvetleaf (Abutilon theophrasti)
Method in brief: as §2

SMILES | Herbicidal effect by soil treatment, M: velvetleaf
COc1cc(F)ccc1-c1sc2c(Cl)cccc2c1-c1c(O)c(C)nn(C)c1=O [4-033] | 0 (Herbicidal rate of 5% or less (almost no effect))

What follows are compounds tested on redroot pigweed (assay: Test Example 4: herbicidal effect by soil treatment (Table 19, symbol N)). Conditions: amount of applied herbicide 320 g/ha.
Type: in vivo, redroot pigweed (Amaranthus retroflexus)
Method in brief: as §2

SMILES | Herbicidal effect by soil treatment, N: redroot pigweed
COc1cc(F)ccc1-c1sc2c(Cl)cccc2c1-c1c(O)c(C)nn(C)c1=O [4-033] | 2 (Herbicidal rate of 20% or more and less than 40%)

The compounds below were run on lambsquarters (assay: Test Example 4: herbicidal effect by soil treatment (Table 19, symbol O)). Conditions: amount of applied herbicide 320 g/ha.
Type: in vivo, lambsquarters (Chenopodium album)
Method in brief: as §2

SMILES | Herbicidal effect by soil treatment, O: lambsquarters
COc1cc(F)ccc1-c1sc2c(Cl)cccc2c1-c1c(O)c(C)nn(C)c1=O [4-033] | 0 (Herbicidal rate of 5% or less (almost no effect))

The compounds below were run on chickweed (assay: Test Example 4: herbicidal effect by soil treatment (Table 19, symbol P)). Conditions: amount of applied herbicide 320 g/ha.
Type: in vivo, common chickweed (Stellaria media)
Method in brief: as §2

SMILES | Herbicidal effect by soil treatment, P: chickweed
COc1cc(F)ccc1-c1sc2c(Cl)cccc2c1-c1c(O)c(C)nn(C)c1=O [4-033] | 4 (Herbicidal rate of 70% or more and less than 90%)

The compounds below were run on persian speedwell (assay: Test Example 4: herbicidal effect by soil treatment (Table 19, symbol R)). Conditions: amount of applied herbicide 320 g/ha.
Type: in vivo, Persian speedwell (Veronica persica)
Method in brief: as §2

SMILES | Herbicidal effect by soil treatment, R: persian speedwell
COc1cc(F)ccc1-c1sc2c(Cl)cccc2c1-c1c(O)c(C)nn(C)c1=O [4-033] | 4 (Herbicidal rate of 70% or more and less than 90%)

Each compound was assayed on southern crabgrass (assay: Test Example 5: herbicidal effect by foliage application, plastic box (Table 20, symbol F)). Conditions: 320 g/ha, foliage application after 14-day growth, evaluated three weeks after application.
Type: in vivo, southern crabgrass (Digitaria ciliaris)
Method in brief: (§3)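 Foliar spray test: emulsion formulation diluted in water to a set application rate, sprayed onto 14-day-old plants raised in diluvial soil at 25° C to 30° C under glass. Both herbicidal effect and crop effect rated visually three weeks later.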

SMILES | herbicidal effect on F: southern crabgrass (evaluation grade 0-5)
COc1cc(F)ccc1-c1sc2c(Cl)cccc2c1-c1c(O)c(C)nn(C)c1=O [4-033] | 0 (Herbicidal rate of 5% or less (almost no effect))

What follows are compounds tested on green foxtail (assay: Test Example 5: herbicidal effect by foliage application, plastic box (Table 20, symbol G)). Conditions: 320 g/ha, foliage application after 14-day growth, evaluated three weeks after application.
Type: in vivo, green foxtail (Setaria viridis)
Method in brief: as §3

SMILES | herbicidal effect on G: green foxtail (evaluation grade 0-5)
COc1cc(F)ccc1-c1sc2c(Cl)cccc2c1-c1c(O)c(C)nn(C)c1=O [4-033] | 0 (Herbicidal rate of 5% or less (almost no effect))

What follows are compounds tested on barnyard grass (assay: Test Example 5: herbicidal effect by foliage application, plastic box (Table 20, symbol H)). Conditions: 320 g/ha, foliage application after 14-day growth, evaluated three weeks after application.
Type: in vivo, barnyard grass (Echinochloa crus-galli)
Method in brief: as §3

SMILES | herbicidal effect on H: barnyard grass (evaluation grade 0-5)
COc1cc(F)ccc1-c1sc2c(Cl)cccc2c1-c1c(O)c(C)nn(C)c1=O [4-033] | 3 (Herbicidal rate of 40% or more and less than 70%)

What follows are compounds tested on wild oat (assay: Test Example 5: herbicidal effect by foliage application, plastic box (Table 20, symbol I)). Conditions: 320 g/ha, foliage application after 14-day growth, evaluated three weeks after application.
Type: in vivo, wild oat (Avena fatua)
Method in brief: as §3

SMILES | herbicidal effect on I: wild oat (evaluation grade 0-5)
COc1cc(F)ccc1-c1sc2c(Cl)cccc2c1-c1c(O)c(C)nn(C)c1=O [4-033] | 0 (Herbicidal rate of 5% or less (almost no effect))

These compounds were tested on blackgrass (assay: Test Example 5: herbicidal effect by foliage application, plastic box (Table 20, symbol J)). Conditions: 320 g/ha, foliage application after 14-day growth, evaluated three weeks after application.
Type: in vivo, blackgrass (Alopecurus myosuroides)
Method in brief: as §3

SMILES | herbicidal effect on J: blackgrass (evaluation grade 0-5)
COc1cc(F)ccc1-c1sc2c(Cl)cccc2c1-c1c(O)c(C)nn(C)c1=O [4-033] | 0 (Herbicidal rate of 5% or less (almost no effect))

The compounds below were run on Italian ryegrass (assay: Test Example 5: herbicidal effect by foliage application, plastic box (Table 20, symbol K)). Conditions: 320 g/ha, foliage application after 14-day growth, evaluated three weeks after application.
Type: in vivo, Italian ryegrass (Lolium multiflorum)
Method in brief: as §3

SMILES | herbicidal effect on K: Italian ryegrass (evaluation grade 0-5)
COc1cc(F)ccc1-c1sc2c(Cl)cccc2c1-c1c(O)c(C)nn(C)c1=O [4-033] | 0 (Herbicidal rate of 5% or less (almost no effect))

These compounds were tested on windgrass (assay: Test Example 5: herbicidal effect by foliage application, plastic box (Table 20, symbol L)). Conditions: 320 g/ha, foliage application after 14-day growth, evaluated three weeks after application.
Type: in vivo, windgrass (Apera spica-venti)
Method in brief: as §3

SMILES | herbicidal effect on L: windgrass (evaluation grade 0-5)
COc1cc(F)ccc1-c1sc2c(Cl)cccc2c1-c1c(O)c(C)nn(C)c1=O [4-033] | 1 (Herbicidal rate of 5% or more and less than 20%)

These compounds were tested on velvetleaf (assay: Test Example 5: herbicidal effect by foliage application, plastic box (Table 20, symbol M)). Conditions: 320 g/ha, foliage application after 14-day growth, evaluated three weeks after application.
Type: in vivo, velvetleaf (Abutilon theophrasti)
Method in brief: as §3

SMILES | herbicidal effect on M: velvetleaf (evaluation grade 0-5)
COc1cc(F)ccc1-c1sc2c(Cl)cccc2c1-c1c(O)c(C)nn(C)c1=O [4-033] | 3 (Herbicidal rate of 40% or more and less than 70%)

What follows are compounds tested on redroot pigweed (assay: Test Example 5: herbicidal effect by foliage application, plastic box (Table 20, symbol N)). Conditions: 320 g/ha, foliage application after 14-day growth, evaluated three weeks after application.
Type: in vivo, redroot pigweed (Amaranthus retroflexus)
Method in brief: as §3

SMILES | herbicidal effect on N: redroot pigweed (evaluation grade 0-5)
COc1cc(F)ccc1-c1sc2c(Cl)cccc2c1-c1c(O)c(C)nn(C)c1=O [4-033] | 2 (Herbicidal rate of 20% or more and less than 40%)

The compounds below were run on lambsquarters (assay: Test Example 5: herbicidal effect by foliage application, plastic box (Table 20, symbol O)). Conditions: 320 g/ha, foliage application after 14-day growth, evaluated three weeks after application.
Type: in vivo, lambsquarters (Chenopodium album)
Method in brief: as §3

SMILES | herbicidal effect on O: lambsquarters (evaluation grade 0-5)
COc1cc(F)ccc1-c1sc2c(Cl)cccc2c1-c1c(O)c(C)nn(C)c1=O [4-033] | 0 (Herbicidal rate of 5% or less (almost no effect))

What follows are compounds tested on chickweed (assay: Test Example 5: herbicidal effect by foliage application, plastic box (Table 20, symbol P)). Conditions: 320 g/ha, foliage application after 14-day growth, evaluated three weeks after application.
Type: in vivo, common chickweed (Stellaria media)
Method in brief: as §3

SMILES | herbicidal effect on P: chickweed (evaluation grade 0-5)
COc1cc(F)ccc1-c1sc2c(Cl)cccc2c1-c1c(O)c(C)nn(C)c1=O [4-033] | 5 (Herbicidal rate of 90% or more (almost completely withered))

These compounds were tested on persian speedwell (assay: Test Example 5: herbicidal effect by foliage application, plastic box (Table 20, symbol R)). Conditions: 320 g/ha, foliage application after 14-day growth, evaluated three weeks after application.
Type: in vivo, Persian speedwell (Veronica persica)
Method in brief: as §3

SMILES | herbicidal effect on R: persian speedwell (evaluation grade 0-5)
COc1cc(F)ccc1-c1sc2c(Cl)cccc2c1-c1c(O)c(C)nn(C)c1=O [4-033] | 5 (Herbicidal rate of 90% or more (almost completely withered))
